Measured values as given in ChEMBL document CHEMBL1128468, “Amino acid side chain descriptors for quantitative structure-activity relationship studies of peptide analogues” (J Med Chem, 1995).
Peptide text beside a SMILES is read from it.

target: Angiotensin-converting enzyme (Homo sapiens, UniProt P12821); assay: Biological activity was measured against Angiotensin I converting enzyme; settings: read-out: Log 1/IC50 (converted)
Sequence (P12821 whole entry): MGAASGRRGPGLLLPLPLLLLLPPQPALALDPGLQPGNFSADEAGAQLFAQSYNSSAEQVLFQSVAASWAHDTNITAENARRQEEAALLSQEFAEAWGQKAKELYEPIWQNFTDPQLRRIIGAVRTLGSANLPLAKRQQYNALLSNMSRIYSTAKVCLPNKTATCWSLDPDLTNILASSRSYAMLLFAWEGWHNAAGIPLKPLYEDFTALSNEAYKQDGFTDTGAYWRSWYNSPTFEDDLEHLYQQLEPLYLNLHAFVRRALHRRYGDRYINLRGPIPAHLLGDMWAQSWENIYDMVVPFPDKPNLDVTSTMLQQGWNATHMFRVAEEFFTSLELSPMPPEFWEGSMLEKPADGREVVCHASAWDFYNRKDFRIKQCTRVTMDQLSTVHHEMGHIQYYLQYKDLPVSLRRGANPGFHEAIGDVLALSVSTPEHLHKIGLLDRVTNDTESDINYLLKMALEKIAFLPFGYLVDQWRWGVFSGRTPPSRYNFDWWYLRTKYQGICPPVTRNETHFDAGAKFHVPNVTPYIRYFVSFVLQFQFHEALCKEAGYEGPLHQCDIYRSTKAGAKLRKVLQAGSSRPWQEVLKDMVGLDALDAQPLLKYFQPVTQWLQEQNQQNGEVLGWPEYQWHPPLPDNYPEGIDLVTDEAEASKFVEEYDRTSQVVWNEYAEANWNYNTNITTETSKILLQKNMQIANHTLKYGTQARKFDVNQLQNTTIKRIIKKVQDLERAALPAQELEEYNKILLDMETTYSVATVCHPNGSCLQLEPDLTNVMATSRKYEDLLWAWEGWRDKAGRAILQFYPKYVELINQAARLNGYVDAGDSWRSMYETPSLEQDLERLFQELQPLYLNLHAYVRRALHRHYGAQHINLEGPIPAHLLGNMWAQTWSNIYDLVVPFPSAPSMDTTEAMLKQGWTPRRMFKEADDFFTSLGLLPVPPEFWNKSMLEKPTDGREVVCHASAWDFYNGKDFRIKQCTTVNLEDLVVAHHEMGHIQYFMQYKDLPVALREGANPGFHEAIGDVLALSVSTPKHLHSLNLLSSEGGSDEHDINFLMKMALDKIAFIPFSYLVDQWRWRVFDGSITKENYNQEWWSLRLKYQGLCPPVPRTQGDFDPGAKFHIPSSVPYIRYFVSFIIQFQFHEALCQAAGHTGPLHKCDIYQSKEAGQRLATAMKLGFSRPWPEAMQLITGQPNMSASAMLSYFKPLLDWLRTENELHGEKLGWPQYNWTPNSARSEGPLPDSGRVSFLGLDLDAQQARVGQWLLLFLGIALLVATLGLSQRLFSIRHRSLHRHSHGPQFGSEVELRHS

IC50 [mM]	SMILES
0.457	C[C@H](NC(=O)[C@@H](N)Cc1ccc(O)cc1)C(=O)O
10	C[C@H](NC(=O)[C@@H](N)CCC(=O)O)C(=O)O (H-Glu-Ala-OH)
2	C[C@H](NC(=O)CN)C(=O)O (H-Gly-Ala-OH)
8.71	CC(C)C[C@H](N)C(=O)NCC(=O)O (H-Leu-Gly-OH)
0.309	CC(C)C[C@H](N)C(=O)N[C@@H](C)C(=O)O [LEU-ALA] (H-Leu-Ala-OH)
3.24	CC(C)C[C@H](NC(=O)[C@@H](N)Cc1c[nH]cn1)C(=O)O (H-His-Leu-OH)
5.75	C[C@@H](O)[C@H](NC(=O)CN)C(=O)O (H-Gly-Thr-OH)
10	C[C@H](O)[C@H](N)C(=O)NCC(=O)O
0.617	C[C@H](N)C(=O)N[C@@H](C)C(=O)O (H-Ala-Ala-OH)
1.2	CC[C@H](C)[C@H](N)C(=O)NCC(=O)O (H-Ile-Gly-OH)
4.57	CC(C)[C@H](NC(=O)CN)C(=O)O (H-Gly-Val-OH)
0.38	C[C@H](NC(=O)[C@@H](N)CCCCN)C(=O)O (H-Lys-Ala-OH)
0.01	C[C@H](N)C(=O)N[C@@H](Cc1c[nH]c2ccccc12)C(=O)O (H-Ala-Trp-OH)
2.51	C[C@H](N)C(=O)NCC(=O)O (H-Ala-Gly-OH)
1.1	CC(C)[C@H](N)C(=O)NCC(=O)O [VAL-GLY] (H-Val-Gly-OH)
0.457	C[C@H](NC(=O)[C@@H](N)CCCN=C(N)N)C(=O)O (H-Arg-Ala-OH)
1.2	CC[C@H](C)[C@H](NC(=O)CN)C(=O)O (H-Gly-Ile-OH)
0.0871	C[C@H](N)C(=O)N[C@@H](Cc1ccc(O)cc1)C(=O)O (H-Ala-Tyr-OH)
3.8	C[C@H](NC(=O)[C@@H](N)CC(=O)O)C(=O)O (H-Asp-Ala-OH)
8.51	N[C@@H](CO)C(=O)NCC(=O)O (H-Ser-Gly-OH)

Second part, the molecule before the results:

SMILES	IC50 [mM]
NCC(=O)N[C@@H](Cc1c[nH]c2ccccc12)C(=O)O (H-Gly-Trp-OH)	0.0302
NCC(=O)N[C@@H](Cc1c[nH]cn1)C(=O)O (H-Gly-His-OH)	3.09
N[C@@H](CC(=O)O)C(=O)NCC(=O)O (H-Asp-Gly-OH)	14.1
N[C@@H](CCC(=O)O)C(=O)NCC(=O)O (H-Glu-Gly-OH)	10
NCC(=O)NCC(=O)O (H-Gly-Gly-OH)	7.24
CC[C@H](C)[C@H](N)C(=O)N[C@@H](Cc1c[nH]c2ccccc12)C(=O)O	0.002
CC(C)[C@H](N)C(=O)N[C@@H](Cc1ccc(O)cc1)C(=O)O (H-Val-Tyr-OH)	0.0219
CSCC[C@H](NC(=O)CN)C(=O)O	1.41
NCC(=O)N[C@@H](Cc1ccc(O)cc1)C(=O)O (H-Gly-Tyr-OH)	0.209
NCCCC[C@H](NC(=O)CN)C(=O)O (H-Gly-Lys-OH)	5.37
N=C(N)NCCC[C@H](N)C(=O)N[C@@H](Cc1ccccc1)C(=O)O	0.229
CSCC[C@H](N)C(=O)NCC(=O)O (H-Met-Gly-OH)	4.79
NCC(=O)N[C@@H](CO)C(=O)O (H-Gly-Ser-OH)	3.8
NCCCC[C@H](N)C(=O)NCC(=O)O (H-Lys-Gly-OH)	3.24
CC[C@H](C)[C@H](N)C(=O)N[C@@H](Cc1ccccc1)C(=O)O (H-Ile-Phe-OH)	0.933
NCC(=O)N[C@@H](CCC(=O)O)C(=O)O (H-Gly-Glu-OH)	5.37
N=C(N)NCCC[C@H](N)C(=O)N1CCC[C@@H]1C(=O)O	0.182
NC(N)=NCCC[C@H](N)C(=O)N[C@@H](Cc1c[nH]c2ccccc12)C(=O)O (H-Arg-Trp-OH)	0.0158
N[C@@H](Cc1c[nH]cn1)C(=O)NCC(=O)O (H-His-Gly-OH)	6.31
N[C@@H](Cc1c[nH]c2ccccc12)C(=O)NCC(=O)O (H-Trp-Gly-OH)	5.89
N=C(N)NCCC[C@H](NC(=O)CN)C(=O)O (H-Gly-Arg-OH)	3.24
NCC(=O)N[C@@H](CC(=O)O)C(=O)O (H-Gly-Asp-OH)	9.12
